Experimental data published in article PMC8752837, “Structural basis of BAK activation in mitochondrial apoptosis initiation” (Nature Communications, 2022).
Residue numbers refer to the chain shown, from its start. Values joined by “and” are separate entries in the source; they are usually repeats but may differ in a detail not shown here. Equal entries are not always repeated. Where two headings read alike, the source gives them in different places.

Experiments:
Human BAK-∆TM-His6 (BAK) = molecular target: T1, Human BAK-∆TM-His6 (BAK) (Homo sapiens, UniProt Q16611); experiment: Liposome permeabilization assay (ANTS/DPX dye release from LUVs): activation of WT BAK by BH3 peptides;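 on AUC for Experiment-2 (Mean): traces normalized between buffer minimum and 3% CHAPS maximum fluorescence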;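 on AUC for Experiment-3 (Mean): traces normalized between buffer minimum and 3% CHAPS maximum fluorescence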; type: biochemical; set-up: AUC for Experiment-2 (Mean) / AUC for Experiment-3 (Mean) / AUC for Experiment-1 (Mean):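 traces normalized between buffer minimum and 3% CHAPS maximum fluorescence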; settings: for EC50: 50 nM BAK; for activation of WT BAK in liposome permeabilization assays: BAK BH3 peptide ligands, 50 nM WT BAK receptor; for peptide concentration at which ligands activate WT BAK / lowest dose at which permeabilization is observed: liposome permeabilization; for peptide concentration at which ligands activate WT BAK: Suppl. Figs. 3e, 4d, e; for lowest dose at which permeabilization is observed: robust across experiments; for AUC for Experiment-1 (Mean) / AUC for Experiment-2 (Mean) / AUC for Experiment-3 (Mean): AUC 0-88 mins of liposome permeabilization; for AUC for Experiment-1 (Mean): Experiment-1, mean of N replicates; for AUC for Experiment-2 (Mean): Experiment-2, mean of N replicates; for AUC for Experiment-3 (Mean): Experiment-3, mean of N replicates
T1 construct: C-terminus truncated recombinant human BAK containing C-terminal 6× histidine tag (MEAS-BAK); made in house; host or cells: E. coli T7 Express pLac I/Y
T1 sequence (Q16611 1-186 limits assumed): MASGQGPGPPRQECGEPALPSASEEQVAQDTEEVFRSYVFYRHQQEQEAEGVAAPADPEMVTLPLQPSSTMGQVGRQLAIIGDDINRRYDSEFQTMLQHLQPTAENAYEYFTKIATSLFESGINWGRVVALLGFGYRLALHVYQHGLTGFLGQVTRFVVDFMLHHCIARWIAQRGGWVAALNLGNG

V74A(1) BAK = experiment: Liposome permeabilization assay: BH3 peptide activation of V74A(1) BAK receptor; type: biochemical, human; settings: Suppl. Figs. 3e, 4d
Procedure: (§1) We performed liposome permeabilization assays as previously described[43]-[46]. […] We mixed the lipid film in ANTS/DPX solution by vortexing and sonication (~15 min) followed by extrusion through polycarbonate membrane of 2 μm pore size (Avanti Polar lipids) to generate homogenous large unilamellar vesicles (LUVs). We separated LUVs from free ANTS/DPX by S500 size exclusion chromatography and stored them at 4 °C in the dark. We prepared peptide and protein dilutions in 96-well black flat bottom plates (Costar) kept on ice. […] We quantified liposome permabilization by integrating area under curve (AUC) of normalized traces based on the Simpson's equation, and analyzed that data in Excel and GraphPad Prism. AUC measurements reflect the kinetic and extent of liposome permeabilization and provide quantitative means for comparison between different experimental conditions (e.g., BAK mutants with gross or partial variation in activity). Variability in permeabilization of different liposomes is common and our analyses compare among conditions investigated with the same liposomes. Although the absolute permeabilization values may differ, the trends for the same conditions are always very similar between different liposomes.

D83A(s) BAK = molecular target: T2, D83A(s) BAK (Homo sapiens, UniProt Q16611, D83A); experiment: Liposome permeabilization assay: BH3 peptide activation of D83A(s) BAK receptor; type: biochemical; settings: for liposome permeabilization by 50 nM D83A(s) BAK receptor: 50 nM mutant BAK, Suppl. Fig. 4f; for EC50: EC50 of liposome permeabilization by 200 nM D83A(s) BAK, 200 nM D83A(s) BAK, Suppl. Fig. 3e, 4e
T2 construct: C-terminus truncated recombinant human BAK containing C-terminal 6× histidine tag (MEAS-BAK); made in house; host or cells: E. coli T7 Express pLac I/Y
T2 sequence (Q16611 1-186 D83A limits assumed): T1 sequence (Q16611 1-186 limits assumed) with D83A
Procedure: as §1

I81R BAK = molecular target: T3, I81R BAK (Homo sapiens, UniProt Q16611, I81R); experiment: Isothermal titration calorimetry with mutant BAK; type: binding; settings: KD could not be obtained by ITC or SPR
T3 construct: To generate tevBAK (residues 22–186), we cleaved off the histidine tag with TEV protease; His tag (vector pNIC28-Bsa4) (N, cleaved yes); made in house; host or cells: E. coli T7 Express pLac I/Y
T3 sequence (Q16611 22-186 I81R): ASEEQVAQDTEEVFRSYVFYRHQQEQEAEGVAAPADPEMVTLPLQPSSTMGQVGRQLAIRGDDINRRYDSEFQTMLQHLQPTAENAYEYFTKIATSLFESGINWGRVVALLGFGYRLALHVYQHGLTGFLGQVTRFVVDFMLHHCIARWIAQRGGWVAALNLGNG
Procedure: Protein samples were exchanged into 20 mM HEPES, 100 mM NaCl and 1 mM TCEP prior to the experiment. Titrations were performed by first injecting 0.5 μl of 250 or 500 µM BID BH3 peptides into a solution of 20 or 50 µM BAK followed by additional 2 μl injections. […] Results were analyzed using Origin software (OriginLab) provided by MicroCal. Binding constants (KD) and thermodynamic parameters were calculated from the average of two or three individual titrations by fitting the data to a single site binding model using a nonlinear least-squares fitting algorithm.

MEAS-BAK-His6 = molecular target: T4, MEAS-BAK-His6 (Homo sapiens, UniProt Q16611); experiment: Surface plasmon resonance; type: binding; settings: 20 °C; for Kd: MEAS-BAK-His6 captured on Ni-NTA HisCap chip, three-fold peptide dilution series injected in triplicate, read-out: SPR KD
T4 construct: C-terminus truncated recombinant human BAK containing C-terminal 6× histidine tag (MEAS-BAK); made in house; host or cells: E. coli T7 Express pLac I/Y
T4 sequence (Q16611 1-186 limits assumed): T1 sequence (Q16611 1-186 limits assumed)
Procedure: We conducted SPR experiments at 20 °C using a Pioneer FE optical biosensor (ForteBio) amd histidine-tagged MEAS-BAK-His6 immobilized on polycarboxylate hydrogel-coated gold chips preimmobilized with nitrilotriacetic acid (HisCap chips; ForteBio). We primed the chip in chelating buffer (10 mM HEPES pH 7.4, 150 mM NaCl, 50 µM EDTA, 0.005% Tween20) and preconditioned it at 10 µL/min with three 60 s injections of wash buffer (10 mM HEPES pH 8.3, 150 mM NaCl, 350 mM EDTA, 0.05% Tween20) and one 60 s injection of chelating buffer before charging with a 60 s injection of 500 µM NiCl2 in chelating buffer. After priming into binding buffer (20 mM HEPES pH 8.0, 200 mM NaCl, 1 mM TCEP, 0.01% Tween20), we injected BAK to achieve ~500 RU of captured protein. As reference cell, we charged one flow cell on the chip with Ni^2+ without adding protein. […] We included a series of buffer-only (blank) injections throughout the experiment to account for instrumental noise. […] We processed, double-referenced, solvent corrected, and analyzed the data using the software package Qdat (version 4.3.1.2, ForteBio). We determined kinetic rate constants and affinities by fitting the data to a 1:1 interaction model.

Structure (SMILES)	peptide concentration at which ligands activate WT BAK (Human BAK-∆TM-His6 (BAK))	lowest dose at which permeabilization is observed (Human BAK-∆TM-His6 (BAK))	peptide concentration at which ligands activate V74A(1) BAK (V74A(1) BAK)	liposome permeabilization by 50 nM D83A(s) BAK receptor (D83A(s) BAK)	EC50 (D83A(s) BAK)	affinity for I81R BAK extrapolated by applying 2-fold difference compared to WT (I81R BAK)	Kd (MEAS-BAK-His6; 1:1 interaction model)	also measured
CC[C@H](C)[C@H](NC(=O)[C@H](C)NC(=O)[C@H](CC(C)C)NC(=O)[C@H](CCC(N)=O)NC(=O)[C@H](CCCNC(=N)N)NC(=O)CNC(=O)[C@@H](NC(=O)[C@H](CCC(N)=O)NC(=O)CNC(=O)[C@H](CCSC)NC(=O)[C@@H](NC(=O)[C@H](CO)NC(=O)[C@H](CO)NC(C)=O)[C@@H](C)O)C(C)C)C(=O)N[C@H](C(=O)NCC(=O)N[C@@H](CC(=O)O)C(=O)N[C@@H](CC(=O)O)C(=O)N[C@H](C(=O)N[C@@H](CC(N)=O)C(=O)N[C@@H](CCCNC(=N)N)C(=O)N[C@@H](CCCNC(=N)N)C(=O)N[C@@H](Cc1ccc(O)cc1)C(N)=O)[C@@H](C)CC)[C@@H](C)CC [WT BAK BH3]	above 1 µM	0.1 µM	above 1 µM	neither peptide ligands could promote liposome permeabilization	4 to 7 µM and 5 to 7 µM	~ 130 µM	67 µM	EC50 (Human BAK-∆TM-His6 (BAK); EC50 from AUC vs peptide dose, data in Supplementary Figure 4b, 37 °C, 90 min, read-out: Liposome permeabilization EC50): 0.0358 ± 0.0304 µM; EC50 (Human BAK-∆TM-His6 (BAK); peer review file, read-out: EC50 analysis of liposome permeabilization (rebuttal, earlier manuscript version)): 0.05 to 0.2 µM; activation of WT BAK in liposome permeabilization assays (Human BAK-∆TM-His6 (BAK)): activates BAK in liposome permeabilization assays similarly to BID BH3; activation of WT BAK in liposome permeabilization assays (Human BAK-∆TM-His6 (BAK); listed as WT BAK BH3 peptide): potently activate WT BAK
CC[C@H](C)[C@H](NC(=O)[C@H](CO)NC(=O)[C@H](CCCNC(=N)N)NC(=O)[C@H](CC(=O)O)NC(=O)[C@H](CCSC)NC(=O)[C@H](CO)NC(=O)[C@H](CC(=O)O)NC(=O)CNC(=O)[C@@H](NC(=O)[C@H](CCC(N)=O)NC(=O)[C@H](C)NC(=O)[C@H](CC(C)C)NC(=O)[C@H](Cc1c[nH]cn1)NC(=O)[C@H](CCCNC(=N)N)NC(=O)[C@H](C)NC(=O)[C@@H](NC(=O)[C@H](CC(N)=O)NC(=O)[C@H](CCCNC(=N)N)NC(=O)[C@@H](NC(=O)[C@@H](NC(=O)[C@H](CC(=O)O)NC(=O)[C@H](CCC(=O)O)NC(C)=O)[C@@H](C)CC)[C@@H](C)CC)[C@@H](C)CC)C(C)C)C(N)=O [WT BID BH3, reference compound]	above 1 µM	1 µM	above 1 µM	neither peptide ligands could promote liposome permeabilization	4 to 7 µM and 5 to 7 µM	~ 130 µM	62.3 ± 0.4 µM	EC50 (Human BAK-∆TM-His6 (BAK); EC50 from AUC vs peptide dose, data in Supplementary Figure 7c, 37 °C, 90 min, read-out: Liposome permeabilization EC50): 0.059 ± 0.012 µM; AUC for Experiment-1 (Mean) (Human BAK-∆TM-His6 (BAK); 1 μM peptide + 50 nM BAK): 17.777; AUC for Experiment-2 (Mean) (Human BAK-∆TM-His6 (BAK); 1 μM peptide + 50 nM BAK): 10.071; AUC for Experiment-3 (Mean) (Human BAK-∆TM-His6 (BAK); 1 μM peptide + 50 nM BAK): 10.975; AUC for Experiment-1 (Mean) (Human BAK-∆TM-His6 (BAK); 50 μM peptide + 50 nM BAK): 14.842; AUC for Experiment-2 (Mean) (Human BAK-∆TM-His6 (BAK); 50 μM peptide + 50 nM BAK): 13.692; AUC for Experiment-3 (Mean) (Human BAK-∆TM-His6 (BAK); 50 μM peptide + 50 nM BAK): 17.854; SPR kd (MEAS-BAK-His6; 1:1 interaction model): 2.61±0.01 ×10-1 s-1; kon (MEAS-BAK-His6; 1:1 interaction model, read-out: SPR ka): 4190 ± 20 M⁻¹ s⁻¹; SPR Rmax (MEAS-BAK-His6; ~500 RU captured BAK): 26.2±0.1 RU
